Measurements taken from paper PMC13288134 (Structure (London, England : 1993), 2025).

Columns and labels:
[1] = target: T1, TvVip1 (Trichoderma virens, UniProt G9MQB8); assay: competition: loss of deu-5'-dA formation from […] deuterated NTP, LC-MS; assay type: biochemical
[2] = target: T2, TvVip1 CTP-swap V2 (Trichoderma virens, UniProt Z9USF9BXN2); assay: competition: deu-5'-dA formation by LC-MS, Cheng-Prusoff from IC50 and Km; assay type: biochemical; conditions: calculated from average IC50 and Km; competitive assumption; 1 mM deuCTP, 1 mM SAM, 10 μM enzyme, dithionite, HEPES pH 7.5
T2 sequence (Z9USF9BXN2 24-317): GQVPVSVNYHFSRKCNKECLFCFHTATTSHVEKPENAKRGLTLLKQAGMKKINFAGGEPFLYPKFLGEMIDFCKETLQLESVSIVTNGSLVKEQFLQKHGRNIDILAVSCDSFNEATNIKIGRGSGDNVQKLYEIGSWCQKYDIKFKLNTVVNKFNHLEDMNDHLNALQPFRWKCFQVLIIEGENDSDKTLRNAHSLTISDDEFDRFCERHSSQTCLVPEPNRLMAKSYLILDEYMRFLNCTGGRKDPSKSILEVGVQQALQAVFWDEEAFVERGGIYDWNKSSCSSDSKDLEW

[3] = target: TvVip2 (Trichoderma virens, UniProt G9N0G3, F40H); assay: X-ray crystal structure, […] Å; assay type: binding; conditions: active site, anaerobic
[4] = target: T3, TvVip2 (Trichoderma virens, UniProt G9N0G3); assay: X-ray crystal structure, […] Å; assay type: binding; conditions: active site, anaerobic
T3 sequence (G9N0G3 32-328): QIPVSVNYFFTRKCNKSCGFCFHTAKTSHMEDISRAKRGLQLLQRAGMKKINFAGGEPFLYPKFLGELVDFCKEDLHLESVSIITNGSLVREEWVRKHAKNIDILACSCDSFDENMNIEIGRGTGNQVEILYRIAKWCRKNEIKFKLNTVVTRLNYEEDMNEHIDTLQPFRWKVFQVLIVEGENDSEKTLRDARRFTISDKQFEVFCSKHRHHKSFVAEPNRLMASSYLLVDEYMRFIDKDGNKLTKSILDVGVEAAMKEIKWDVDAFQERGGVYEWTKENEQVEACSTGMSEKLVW

[5] = target: T1, TvVip1; assay: competition: deu-5'-dA formation by LC-MS, Cheng-Prusoff from IC50 and Km; assay type: biochemical; conditions: calculated from average IC50 and Km; competitive assumption; 1 mM deuUTP, 1 mM SAM, 10 μM enzyme, dithionite, HEPES pH 7.5
[6] = target: T2, TvVip1 CTP-swap V2; assay: as above; assay type: biochemical; conditions: calculated from average IC50 and Km; competitive assumption; 1 mM deuUTP, 1 mM SAM, 10 μM enzyme, dithionite, HEPES pH 7.5

| IC50 [1] [µM] | Ki (UTP) [2] [µM] | Ki (CTP) [5] [µM] | Ki (CTP) [6] [µM] | SMILES | X-ray crystal structure, 2.3 Å ([3]; with SAM and [4Fe-4S]) | X-ray crystal structure, 1.5 Å ([4]; with SAM and [4Fe-4S]) | X-ray crystal structure, 2.3 Å ([3]; with CTP and [4Fe-4S]) | X-ray crystal structure, 1.5 Å ([4]; with CTP and [4Fe-4S]) |
| --- | --- | --- | --- | --- | --- | --- | --- | --- |
| 19 ± 5.7 | > 59 | – | – | O=c1ccn([C@@H]2O[C@H](COP(=O)(O)OP(=O)(O)OP(=O)(O)O)[C@@H](O)[C@H]2O)c(=O)[nH]1 [UTP] | – | – | – | – |
| > 4900 | – | > 360 | 0.22 | Nc1ccn([C@@H]2O[C@H](COP(=O)(O)OP(=O)(O)OP(=O)(O)O)[C@@H](O)[C@H]2O)c(=O)n1 [CTP] | TvVip2 F40H (PDB: 9DFU) in the presence of CTP and SAM | contain strong electron density representing the radical SAM [4Fe-4S] cluster, SAM, and CTP | – | – |
| – | – | – | – | C[S+](CC[C@H](N)C(=O)O)C[C@H]1O[C@@H](n2cnc3c(N)ncnc32)[C@H](O)[C@@H]1O (stereo partly drawn) [SAM] | – | – | TvVip2 F40H (PDB: 9DFU) in the presence of CTP and SAM | contain strong electron density representing the radical SAM [4Fe-4S] cluster, SAM, and CTP |
